For assay [1], the system named is licking reflex of mice on a plate heated at 55° C. As to the kind of experiment: Hot-plate test (55° C.): specific antalgic effect. Format: in vivo. The note with it: intravenous; for ED50: Mus musculus, hot plate 55° C. The method, then:
(§1) Licking reflex of mice on a plate heated at 55° C. according to the method of Jacob. and co-workers (Arch. Int. Pharmacodyn. 122, 287-300, 1959: 133, 296-300, 1961).
(b) Specific antalgic effect
Background: Thermal pain tests record how soon the animal reacts.

Assay [2] has as its target enkephalinase (enkephalin dipeptidylcarboxypeptidase). As to the kind of experiment: Determination of enkephalinasic (enkephalin dipeptidylcarboxypeptidasic) activity and effect of inhibitors, striatal membrane fraction, 3H-leucine-enkephalin. The conditions noted are these: 10 nM leucine-enkephalin 3H, 25° C., pH 7.4, 15 mn, read-out: 50% inhibitory concentration. Format: biochemical, rats or mice. The method, then:
Determination of the "enkephalinasic" (enkephalin dipeptidylcarboxypeptidasic) activity and determination of the effect of inhibitors.
The enzyme preparation used is a membrane fraction from the striatum of rats or mice.
This fraction is obtained by homogenization at 4° C. in 20 volumes Tris-HCl buffer 0.05M (pH 7.4) followed by two successive centrifugations (1000 g×min. and 200,000 g×min.) at the end of which the sediment of the second centrifugation is retained. It is washed by re-suspension in 10 ml of the buffer followed by centrifugation (200,000 g×min) and the resulting sediment is in turn washed superficially to complete the removal of the soluble enzymes. The resulting membrane fraction is taken up into the buffer at 4° C., to obtain a suspension comprising about 1.5 mg proteins per ml.
An aliquot sample (50 μl) of the membrane suspension is then incubated in a final volume of 100 μl at 25° C. in the presence of 10 nM leucine-enkephalin ^3 H (39 Ci/mmole), previously purified by column chromatography over Porapak Q (100-120 mesh, Waters Assoc.) and […] puromycine, an aminopeptidase inhibitor. Incubation time is generally set at 15 mn. in order to determine the initial rate of the formation of tripeptide Tyr-Gly-Gly-^3 H characteristic of the enkephalin dipeptidylcarboxypeptidasic (enkephalinasic) activity.
Determination of the radioactivity of the tripeptide is effected by liquid scintillation spectrometry. […]

Another assay concerns Tail of the mice. The note with it: for potentiation of D Ala2 Met Enkephalin: compound i.v. 100 mg/kg, D Ala2 Met Enkephalin 15 minutes later, ivt, 10 to 30γ/mouse; for specific antalgic effect (tail withdrawal): i.v. 100 mg/kg.
The subject of assay [3] is licking reflex of mice on a plate heated at 55° C. Briefly: Hot-plate test (55° C.): potentiation of the antalgic effect of D Ala2 Met Enkephalin and Naloxone antagonism. Type of assay: in vivo. The conditions noted are these: for % Increase of the licking time with respect to the animals treated with D Ala2 Met Enkephalin (1): dosage 10 α/mouse; for Potentiation of the effect of a subactive dosage of D Ala2 Met Enkephalin: 0.3γ D Ala2 Met Enkephalin. The method, then: as §1
(a) Potentiation of the antalgic effect of D Ala2 Met Enkephalin
(α) By the intraventricular route (ivt)
(β) By the intravenous route

For another assay, the system named is blood-pressure. As to the kind of experiment: Hypotensive activity. The note with it: Canis lupus familiaris; intravenous administration; read-out: lowest dosage producing a decrease of the blood-pressure. Type of assay: in vivo, dogs. From the text:
enkephalin-potentiating activity, (LAUBIE M., SCHMITT H., VINCENT M., REMON D. Central cardiovascular effects of Morphinometric peptids in dogs. European Journal of Pharmacology, Vol. 46, 67-71, 1977).

Assay [4] deals with phenylbenzoquinone-induced pain. Briefly: Phenylbenzoquinone or writhing test. Type of assay: in vivo. The note with it: 0.7 mg/kg i.v.; vs controls p<0.01. From the text:
3--Phenylbenzoquinone or "writhing test" according to the method of SIEGMUND and co-workers (Proc. Soc. Expert. Biol. Med. 1957, 95, 729-731).
A general note: An intraperitoneal irritant provokes the stretching counted in writhing tests.

Where [5] appears, read: ivt, + D Ala2 Met Enkephalin 0.3 α/mouse.

pIC50: −log10 of the molar value. Read-outs that look alike come from different tables or passages of the source.

What is called ED50 is the midpoint of the dose-response relation. Lower therefore signals an effect at a small dose. In the case of `COC(=O)CNC(=O)C(CSC(C)=O)Cc1ccccc1` (racemic) [Compound 19, N-[(RS)-3-acetylthio-2-benzyl-propionyl]glycine methyl ester], in assay [1], the 50% effect level (ED50) was put at a dose of 30 mg/kg and the “antalgic effect in the hot (55° C.) plate test” value was “have an antalgic effect”.
Turning to `O=C(O)CNC(=O)C(CS)Cc1ccccc1` (racemic) [Compound 20, N-[(R,S)-3-mercapto-2-benzyl-propionyl]glycine], in assay [2], the pIC50 is 8.30. The “Increase reaction time (%)” value with Tail of the mice (30 mg/kg i.v. + D Ala2 Met Enkephalin (15 γ ivt), 20 mn) is 247%; with Tail of the mice (30 mg/kg i.v. + D Ala2 Met Enkephalin (15 γ ivt), 45 mn), 353%; in the assay on Tail of the mice (30 mg/kg i.v. + D Ala2 Met Enkephalin (15 γ ivt), 60 mn), 283%; in the assay on Tail of the mice (30 mg/kg i.v. + D Ala2 Met Enkephalin (15 γ ivt), 90 mn) it was 210%; with Tail of the mice (30 mg/kg i.v. + D Ala2 Met Enkephalin (15 γ ivt), 120 mn) it was 203%; in the assay on Tail of the mice (100 mg/kg i.v. + D Ala2 Met Enkephalin (15 γ ivt), 20 mn), 239%. Also, the “Increase reaction time (%)” value with Tail of the mice (100 mg/kg i.v. + D Ala2 Met Enkephalin (15 γ ivt), 45 mn) was 528%; with Tail of the mice (100 mg/kg i.v. + D Ala2 Met Enkephalin (15 γ ivt), 60 mn) it was 321%; with Tail of the mice (100 mg/kg i.v. + D Ala2 Met Enkephalin (15 γ ivt), 90 mn) it was 382%; in the assay with Tail of the mice (100 mg/kg i.v. + D Ala2 Met Enkephalin (15 γ ivt), 120 mn) it was 322%; in the assay on Tail of the mice (100 mg/kg i.v. alone, 20 mn) it was 59%; with Tail of the mice (100 mg/kg i.v. alone, 45 mn) it was 196%. Besides, the “Increase reaction time (%)” value with Tail of the mice (100 mg/kg i.v. alone, 60 mn) turned out to be 150%; in the assay on Tail of the mice (100 mg/kg i.v. alone, 90 mn), 88%; with Tail of the mice (100 mg/kg i.v. alone, 120 mn), 85%. Moreover, in the assay with Tail of the mice, the “potentiation of D Ala2 Met Enkephalin” value is recorded as “potentiate most significantly”. Further, the “specific antalgic effect (tail withdrawal)” value in the assay on Tail of the mice is “exhibit a specific antalgic affect”.
Regarding `CC(C)C[C@H](NC(=O)[C@H](Cc1ccccc1)NCC(=O)O)C(=O)O` [Compound 2, N-(carboxy-methyl)L.phenylalanine-L.leucine], the “% Increase of the licking time with respect to the animals treated with D Ala2 Met Enkephalin (1)” value (“% Increase of the licking time” below) in assay [3] (setting [5]) is given as 274%. In addition, in assay [3] (ivt), the “Potentiation of the effect of a subactive dosage of D Ala2 Met Enkephalin” value is recorded as “significantly potentiated (p≤0.05)”. For the same compound, the pIC50 in assay [2] was 5.82.
For `CC(C)C[C@H](NC(=O)[C@@H](Cc1ccccc1)NCC(=O)O)C(=O)O` [Compound 5, N-(carboxy-methyl)-D.phenylalanine-L.leucine], in assay [2], the pIC50 is 4.70.
`CC(C)C[C@H](NC(=O)C(CS)Cc1ccccc1)C(=O)O` (stereo partly drawn) [Compound 18, N[(R,S)3-mercapto-2-benzyl-propionyl]-L.leucine]: the “Increase reaction time (%)” value is reported as 0% with Tail of the mice (100 mg/kg i.v. + D Ala2 Met Enkephalin (30 γ ivt), 20 mn); 280% in the assay on Tail of the mice (100 mg/kg i.v. + D Ala2 Met Enkephalin (30 γ ivt), 45 mn); 166% in the assay on Tail of the mice (100 mg/kg i.v. + D Ala2 Met Enkephalin (30 γ ivt), 60 mn); 87% in the assay on Tail of the mice (100 mg/kg i.v. + D Ala2 Met Enkephalin (30 γ ivt), 90 mn); 174% in the assay on Tail of the mice (100 mg/kg i.v. + D Ala2 Met Enkephalin (30 γ ivt), 120 mn); 38% in the assay on Tail of the mice (100 mg/kg i.v. alone, 20 mn). Further, the “Increase reaction time (%)” value with Tail of the mice (100 mg/kg i.v. alone, 45 mn) came out at 80%; with Tail of the mice (100 mg/kg i.v. alone, 60 mn) it was 120%; with Tail of the mice (100 mg/kg i.v. alone, 90 mn), 61%; in the assay with Tail of the mice (100 mg/kg i.v. alone, 120 mn) it was 90%. The “potentiation of D Ala2 Met Enkephalin” value in the assay on Tail of the mice is “potentiate most significantly”. Also, the “specific antalgic effect (tail withdrawal)” value in the assay with Tail of the mice is recorded as “exhibit a specific antalgic affect”. Besides, the minimal effective dose with blood-pressure amounted to 0.3 mg/kg.
As for `CC(C)C[C@H](NC(=O)[C@H](Cc1ccccc1)SC(=O)c1ccccc1)C(=O)O` [Compound 27, N-[(S)-2-benzoylthio-3-phenyl-propionyl]-L.leucine], the pIC50 in assay [2] was 5.30.
On to `CC(C)C[C@H](NC(=O)[C@@H](S)Cc1ccccc1)C(=O)O` [Compound 28, N-[(S)-2-mercapto-3-phenyl-propionyl]-L.leucine], for which the “% Increase of the licking time” value in assay [3] (setting [5]) was determined as 400%. In addition, the “Potentiation of the effect of a subactive dosage of D Ala2 Met Enkephalin” value in assay [3] (ivt) is “significantly potentiated (p≤0.05)”.
For `COC(=O)[C@H](CC(C)C)NC(=O)[C@H](Cc1ccccc1)SC(C)=O` [Compound 29, N-[(S)-2-acetylthio-3-phenyl-propionyl]-L.leucine methyl ester] the same measures were 207% and “significantly potentiated (p≤0.05)”.
Regarding `C[C@H](NC(=O)[C@@H](S)Cc1ccccc1)C(=O)O` [Compound 32, N-[(S)-2-mercapto-3-phenyl-propionyl]-L.alanine], the pIC50 in assay [2] was 7.00.
The same measure, in the same setting: next, `CC(=O)SCS[C@@H](Cc1ccccc1)C(=O)N[C@@H](CC(C)C)C(=O)O` [Compound 33, N-[(S)-2-acetylthiomethylthio-3-phenyl-propionyl]-L.leucine]: 6.00.
For the compound `CC(C)C[C@H](NC(=O)[C@H](Cc1ccccc1)SCCS)C(=O)O` [Compound 35, N-[(S)-2-mercapto-ethylthio-3-phenyl-propionyl]-L.leucine], the “increase of the licking time with respect to the animals treated with D Ala2 Met Enkephalin” value in assay [3] (compound i.v. 100 mg/kg, D Ala2 Met Enkephalin 0.3γ intraventricular) is 100%. Further, the “% Increase of the licking time” value in assay [3] (setting [5]) is given as 240%; in assay [3] (ivt, + D Ala2 Met Enkephalin 0.3 α/mouse + Naloxone 10 mg/kg s.c.), 18%. Besides, in assay [3] (ivt), the “Potentiation of the effect of a subactive dosage of D Ala2 Met Enkephalin” value is listed as “significantly potentiated (p≤0.05)”. Also, the pIC50 in assay [2] is 6.40.
On to `CC(=O)SCC(Cc1ccccc1)C(=O)NCC(=O)OCc1ccc(F)cc1` (centres unmarked) [Compound 54, N-[3-Acetylthio-2-benzylpropanoyl]glycine(p.fluoro)-benzylester], for which the pIC50 in assay [2] is 6.59. In addition, in assay [1], it took a dose of 3 mg/kg to reach the 50% effect level (ED50) and the “antalgic effect in the hot (55° C.) plate test” value is given as “have an antalgic effect”. Also, the “protection from phenylbenzoquinone-induced pain” value in assay [4] is recorded as “protect the treated animals from phenylbenzoquinone-induced pain, with a significant difference with respect to the controls, p<0.01”.
Turning to `CC(=O)SCC(Cc1ccccc1)C(=O)NCC(=O)OCC(F)(F)F` (centres unmarked) [Compound 55, N-[3-Acetylthio-2-benzylpropanoyl]-glycine-2,2,2-trifluoroethyl ester], the pIC50 in assay [2] is 6.46.
Same read-out and setting: the figure for `CC(=O)SCC(Cc1ccccc1)C(=O)NCC(=O)NCc1ccccc1` (centres unmarked) [Compound 56, N-[3-Acetylthio-2-benzylpropanoyl]glycine benzylamide] is 6.40; for `O=C(CNC(=O)C(CS)Cc1ccccc1)OCc1ccccc1` (centres unmarked) [Compound 57, N-[3-Mercapto-2-benzyl-propanoyl]glycine benzyl ester] it is 8.11.
Still for that read-out and setting: next, `O=C(CNC(=O)C(CS)Cc1ccccc1)NCc1ccccc1` (centres unmarked) [Compound 60, N-[3-Mercapto-2-benzyl-propanoyl]glycine benzylamide]: 7.52.
Turning to `C=CCN1CC[C@]23c4c5ccc(O)c4O[C@H]2C(=O)CC[C@@]3(O)[C@H]1C5` [Naloxone, reference compound], the “antagonism of the potentiated antalgic effect by Naloxone” value in assay [3] (ivt, compounds + D Ala2 Met Enkephalin) is on record as “this effect is antagonized by Naloxone”.
Consider “D Ala2 Met Enkephalin [reference compound]”, for which the “activity of D Ala2 Met Enkephalin per se” value in assay [3] (0.3 α/mouse, ivt) was “inactive per se”.

(Values after patent US4513009A, “Aminoacid derivatives and their therapeutic applications” (priority 1980, dated 1985).)
